Laboratory results published in ChEMBL document CHEMBL3425465, “Synthesis, antimalarial and antitubercular activities of meridianin derivatives” (Eur J Med Chem, 2015).
Values after ≈ are worked out from the molar mass of the structure shown.

Legend:
[1] = tested on: Mycobacterium tuberculosis; experiment: Antitubercular activity against Mycobacterium tuberculosis H37Rv assessed as […] inhibition after 7 days by broth microdilution assay; assay type: functional; conditions: 168 h
Plasmodium falciparum [2] = experiment: Antiplasmodial activity against Plasmodium falciparum D6 infected in human RBC assessed as parasite growth inhibition measured as LDH activity after 72 hrs by plate reader analysis; assay type: functional, organism-based
Plasmodium falciparum [3] = experiment: Antiplasmodial activity against Plasmodium falciparum W2 infected in human RBC assessed as parasite growth inhibition measured as LDH activity after 72 hrs by plate reader analysis; assay type: functional, organism-based
[4] = Retention time of the compound by HPLC analysis; assay type: physicochemical
Vero = experiment: Cytotoxicity against African green monkey Vero cells assessed as cell growth inhibition after 48 hrs by neutral red assay; assay type: cell-based; conditions: Chlorocebus sabaeus
LLC-PK1 = experiment: Cytotoxicity against pig LLC-PK1 cells assessed as cell growth inhibition after 48 hrs by neutral red assay; assay type: cell-based; conditions: Sus scrofa, LLC-PK1, 48 h
SK-MEL = experiment: Cytotoxicity against human SK-MEL cells assessed as cell growth inhibition after 48 hrs by neutral red assay; assay type: cell-based
KB = experiment: Cytotoxicity against human KB cells assessed as cell growth inhibition after 48 hrs by neutral red assay; assay type: cell-based
BT-549 = experiment: Cytotoxicity against human BT549 cells assessed as cell growth inhibition after 48 hrs by neutral red assay; assay type: cell-based; conditions: BT-549, 48 h
SK-OV-3 = experiment: Cytotoxicity against human SKOV3 cells assessed as cell growth inhibition after 48 hrs by neutral red assay; assay type: cell-based; conditions: SK-OV-3, 48 h
[5] = Selectivity index, ratio of IC50 for African green monkey VERO cells to IC50 for Plasmodium falciparum D6
[6] = Selectivity index, ratio of IC50 for pig LLC-PK1 cells to IC50 for Plasmodium falciparum D6
[7] = Selectivity index, ratio of IC50 for African green monkey VERO cells to IC50 for Plasmodium falciparum W2
[8] = Selectivity index, ratio of IC50 for pig LLC-PK1 cells to IC50 for Plasmodium falciparum W2
[9] = Plasmodium falciparum, D6, 72 h, read-out: IC50
[10] = Plasmodium falciparum, D6, 72 h, read-out: pIC50 (converted)
[11] = Plasmodium falciparum, W2, 72 h, read-out: IC50
[12] = Plasmodium falciparum, W2, 72 h, read-out: pIC50 (converted)

SMILES | MIC90 [1] [µM] | IC50 (Plasmodium falciparum [2]) | IC50 (Plasmodium falciparum [3]) | Retention_time [4] [min] | also measured
CN1CCN(C(=O)n2cc(-c3ccnc(N)n3)c3cc(Br)ccc32)CC1 | 155 (≈ 64.2 µg/mL) |  |  |  | 
Nc1nccc(-c2cn(C(=O)c3ccccc3)c3ccc(Br)cc23)n1 | 163 (≈ 64 µg/mL) |  |  |  | 
Cc1noc(C)c1Cn1cc(-c2ccnc(N)n2)c2ccccc21 | 201 (≈ 64.1 µg/mL) |  |  |  | 
Cc1noc(C)c1Cn1cc(-c2ccnc(N)n2)c2cc(Br)ccc21 | 80.6 (≈ 32.1 µg/mL) |  |  |  | 
Nc1nccc(-c2cn(Cc3ccc(Cl)s3)c3ccc(Br)cc23)n1 | 76.6 (≈ 32.2 µg/mL) |  |  |  | 
COCCn1cc(-c2ccnc(N)n2)c2cc(Br)ccc21 | 92.2 (≈ 32 µg/mL) |  |  |  | 
O=C1NC(c2c[nH]c3ccc(Br)cc23)Nc2ccccc21 (configuration not stated) | 23.4 (≈ 8.01 µg/mL) |  |  |  | 
COc1ccc(S(=O)(=O)n2cc(-c3ccnc(N)n3)c3ccccc32)cc1 |  | Not Active | Not Active | 8.49 | 
COc1ccc(S(=O)(=O)n2cc(-c3ccnc(N)n3)c3cc(Br)ccc32)cc1 |  | Not Active | Not Active | 8.08 | 
CC(C)(C)c1ccc(S(=O)(=O)n2cc(-c3ccnc(N)n3)c3ccccc32)cc1 |  | Not Active | Not Active | 9.09 | 
CC(C)(C)c1ccc(S(=O)(=O)n2cc(-c3ccnc(N)n3)c3cc(Br)ccc32)cc1 |  |  |  | 13.2 | IC50 (Plasmodium falciparum [2]; [9]): 8.36 µM; IC50 (Plasmodium falciparum [2]; [10]): 8.36 µM; IC50 (Plasmodium falciparum [3]; [11]): 8.74 µM; IC50 (Plasmodium falciparum [3]; [12]): 8.75 µM; IC50 (Vero): > 51 µM; IC50 (LLC-PK1): > 51 µM; IC50 (SK-MEL): > 51 µM; IC50 (KB): > 51 µM; IC50 (BT-549): > 51 µM; IC50 (SK-OV-3): > 51 µM; Ratio IC50 [5]: >6.1; Ratio IC50 [6]: >6.1; Ratio IC50 [7]: >5.9; Ratio IC50 [8]: >5.9
Cc1cc(C)c(S(=O)(=O)n2cc(-c3ccnc(N)n3)c3ccccc32)c(C)c1 |  | Not Active | Not Active | 8.95 | 
Cc1cc(C)c(S(=O)(=O)n2cc(-c3ccnc(N)n3)c3cc(Br)ccc32)c(C)c1 |  |  |  | 10.66 | IC50 (Plasmodium falciparum [2]; [9]): 8.12 µM; IC50 (Plasmodium falciparum [2]; [10]): 8.13 µM; IC50 (Plasmodium falciparum [3]; [11]): 8.36 µM; IC50 (Plasmodium falciparum [3]; [12]): 8.36 µM; IC50 (Vero): > 53 µM; IC50 (LLC-PK1): > 53 µM; IC50 (SK-MEL): > 53 µM; IC50 (KB): > 53 µM; IC50 (BT-549): > 53 µM; IC50 (SK-OV-3): > 53 µM; Ratio IC50 [5]: >6.5; Ratio IC50 [6]: >6.5; Ratio IC50 [7]: >6.3; Ratio IC50 [8]: >6.3
Cc1c(C)c(C)c(S(=O)(=O)n2cc(-c3ccnc(N)n3)c3ccccc32)c(C)c1C |  |  |  | 10 | 
Cc1c(C)c(C)c(S(=O)(=O)n2cc(-c3ccnc(N)n3)c3cc(Br)ccc32)c(C)c1C |  |  |  | 13.88 | 
Nc1nccc(-c2cn(S(=O)(=O)c3ccc([N+](=O)[O-])cc3)c3ccccc23)n1 |  |  |  | 7.43 | 
Nc1nccc(-c2cn(S(=O)(=O)c3ccc([N+](=O)[O-])cc3)c3ccc(Br)cc23)n1 |  |  |  | 7.78 | IC50 (Plasmodium falciparum [2]; [9]): 4.86 µM; IC50 (Plasmodium falciparum [2]; [10]): 4.86 µM; IC50 (Plasmodium falciparum [3]; [11]): 6.39 µM; IC50 (Plasmodium falciparum [3]; [12]): 6.38 µM; IC50 (Vero): > 52 µM; IC50 (LLC-PK1): > 52 µM; IC50 (SK-MEL): > 52 µM; IC50 (KB): > 52 µM; IC50 (BT-549): > 52 µM; IC50 (SK-OV-3): > 52 µM; Ratio IC50 [5]: >10.8; Ratio IC50 [6]: >10.8; Ratio IC50 [7]: >8.2; Ratio IC50 [8]: >8.2
N#Cc1ccc(S(=O)(=O)n2cc(-c3ccnc(N)n3)c3ccccc32)cc1 |  |  |  | 7.02 | IC50 (Plasmodium falciparum [2]; [9]): 11 µM; IC50 (Plasmodium falciparum [2]; [10]): 11 µM; IC50 (Plasmodium falciparum [3]; [11]): 8.98 µM; IC50 (Plasmodium falciparum [3]; [12]): 8.97 µM; IC50 (Vero): > 66 µM; IC50 (LLC-PK1): > 66 µM; IC50 (SK-MEL): > 66 µM; IC50 (KB): > 66 µM; IC50 (BT-549): > 66 µM; IC50 (SK-OV-3): > 66 µM; Ratio IC50 [5]: >6; Ratio IC50 [6]: >6; Ratio IC50 [7]: >7.4; Ratio IC50 [8]: >7.4
Nc1nccc(-c2cn(S(=O)(=O)c3cccc(C(F)(F)F)c3)c3ccccc23)n1 | 153 (≈ 64.1 µg/mL) | Not Active | Not Active | 8.34 | 

SMILES | MIC90 [1] [µM] | IC50 (Plasmodium falciparum [2]) | IC50 (Plasmodium falciparum [3]) | Retention_time [4] [min] | also measured
Nc1nccc(-c2cn(S(=O)(=O)c3ccc(C(F)(F)F)cc3)c3ccccc23)n1 |  | Not Active | Not Active | 9.15 | 
Nc1nccc(-c2cn(S(=O)(=O)c3cc(C(F)(F)F)cc(C(F)(F)F)c3)c3ccccc23)n1 |  | Not Active | Not Active | 7.87 | 
Nc1nccc(-c2cn(S(=O)(=O)c3cc(C(F)(F)F)cc(C(F)(F)F)c3)c3ccc(Br)cc23)n1 |  | Not Active | Not Active | 10.48 | 
Nc1nccc(-c2cn(S(=O)(=O)c3ccc4c(c3)OCCO4)c3ccccc23)n1 |  | Not Active | Not Active | 8.02 | 
Nc1nccc(-c2cn(S(=O)(=O)c3ccc4c(c3)OCCO4)c3ccc(Br)cc23)n1 |  | Not Active | Not Active | 8 | 
Nc1nccc(-c2cn(S(=O)(=O)c3ccc(OC(F)(F)F)cc3)c3ccc(Br)cc23)n1 | 62.5 (≈ 32.1 µg/mL) | Not Active | Not Active | 9.54 | 
Nc1nccc(-c2cn(S(=O)(=O)c3ccc(F)cc3F)c3ccccc23)n1 |  | Not Active | Not Active | 7.32 | 
Nc1nccc(-c2cn(S(=O)(=O)c3ccc4ccccc4c3)c3ccccc23)n1 |  | Not Active | Not Active | 8.31 | 
COc1ccc(S(=O)(=O)n2cc(-c3ccnc(N)n3)c3ccccc32)cc1OC |  | Not Active | Not Active | 6.92 | 
Nc1nccc(-c2cn(S(=O)(=O)c3ccc(Cl)cc3Cl)c3ccccc23)n1 |  | Not Active | Not Active | 9.08 | 
Nc1nccc(-c2cn(S(=O)(=O)c3ccc(Br)cc3)c3ccccc23)n1 |  | Not Active | Not Active | 8.45 | 
COc1ccc(Br)cc1S(=O)(=O)n1cc(-c2ccnc(N)n2)c2ccccc21 |  | Not Active | Not Active | 8.38 | 
Nc1nccc(-c2cn(S(=O)(=O)c3ccc(I)cc3)c3ccccc23)n1 |  | Not Active | Not Active | 8.8 | 
Cc1ccsc1C(=O)n1cc(-c2ccnc(N)n2)c2ccccc21 | 192 (≈ 64.1 µg/mL) |  |  | 8.48 | 
O=C1NC(c2c[nH]c3ccc(I)cc23)Nc2ccccc21 (configuration not stated) | 5.2 (≈ 2.02 µg/mL) |  |  |  | 
Nc1nccc(-c2c[nH]c3ccccc23)n1 | 305 (≈ 64.1 µg/mL) |  |  |  | Ratio IC50 [5]: >12.3; Ratio IC50 [6]: >11.1; Ratio IC50 [7]: >26.8; Ratio IC50 [8]: >24.1
COc1cccc2c1C(=O)c1c(O)c3c(c(O)c1C2=O)C[C@@](O)(C(=O)CO)C[C@@H]3O[C@H]1C[C@H](N)[C@H](O)[C@H](C)O1 [DOXORUBICIN] |  |  |  |  | IC50 (Vero): > 9 µM; IC50 (BT-549): 1.6 µM
Nc1nccc(-c2c[nH]c3ccc(Br)cc23)n1 [MERIDIANIN C] | 111 (≈ 32.1 µg/mL) |  |  |  | Ratio IC50 [5]: >6; Ratio IC50 [6]: >6; Ratio IC50 [7]: >7.4; Ratio IC50 [8]: >7.4
CO[C@H]1/C=C/O[C@@]2(C)Oc3c(C)c(O)c4c(O)c(c(/C=N/N5CCN(C)CC5)c(O)c4c3C2=O)NC(=O)/C(C)=C\C=C\[C@H](C)[C@H](O)[C@@H](C)[C@@H](O)[C@@H](C)[C@H](OC(C)=O)[C@@H]1C [RIFAMPIN] | 0.07 (≈ 0.0576 µg/mL) |  |  |  | 
